# From patent US12180198B2, “Ribocil C antibiotics effective for Gram-negative pathogens” (THE BOARD OF TRUSTEES OF THE UNIVERSITY OF ILLINOIS, priority 2018, dated 2024)
# Structures can show the parent of a compound that is named as a salt. Where two headings read alike, the source gives them in different places.
# What was measured:
# E. coli BAA-2469 [1] = experiment: Bioactivity against exemplary strains of bacteria (Table 5A); type: cell-based; design: unit not given here; conditions: Strain 2: E. coli BAA-2469
# K. pneumoniae BAA-2146 = experiment: as above; type: cell-based; conditions: Strain 4: K. pneumoniae BAA-2146
# A. baumannii BAA-2093 = experiment: as above; type: cell-based; conditions: Strain 3: A. baumannii BAA-2093
# K. pneumoniae M67198 = experiment: MIC, micro-dilution broth method; type: cell-based; conditions: Klebsiella pneumoniae; K. pneumoniae M67198; read-out: MIC
# Procedure: (§1) Compounds were evaluated against a panel of Gram-positive and Gram-negative organisms. MIC values were determined using the micro-dilution broth method as outlined by the Clinical and Laboratory Standards Institute (clsi.org/) and are listed in […]. All experiments were performed in biological triplicate.
# (§2) Antimicrobial susceptibility tests. Susceptibility testing was performed in biological triplicate, using the micro-dilution broth method as outlined by the Clinical and Laboratory Standards Institute. Bacteria were cultured with cation-adjusted Muller-Hinton broth (Sigma-Aldrich, Cat #90922) in round-bottom 96-well plates (Corning, Cat #3788). Human serum (pooled gender, 0.2 μm filtered) was purchased from BioIVT (Hicksville, NY).
# E. coli AR-0495 = experiment: MIC, micro-dilution broth method; type: cell-based; conditions: Escherichia coli, AR0495; E. coli AR-0495; read-out: MIC
# Procedure: as §1, §2
# E. coli AR-0493 = experiment: MIC, micro-dilution broth method; type: cell-based; conditions: Escherichia coli, AR0493; E. coli AR-0493; read-out: MIC
# Procedure: as §1, §2
# K. pneumoniae AR-0347 = experiment: MIC, micro-dilution broth method; type: cell-based; conditions: Klebsiella pneumoniae, AR0347; K. pneumoniae AR-0347; read-out: MIC
# Procedure: as §1, §2
# E. coli ΔrfaC JW3596 = experiment: MIC, micro-dilution broth method; type: cell-based; conditions: Escherichia coli
# Procedure: as §1, §2
# K. pneumoniae M67297 = experiment: MIC, micro-dilution broth method; type: cell-based; conditions: Klebsiella pneumoniae; K. pneumoniae M67297; read-out: MIC
# Procedure: as §1, §2
# E. cloacae S28901.1 = experiment: MIC, micro-dilution broth method; type: cell-based; conditions: Enterobacter cloacae; E. cloacae S28901.1; read-out: MIC
# Procedure: as §1, §2
# E. cloacae BAA-2468 = experiment: MIC, micro-dilution broth method; type: cell-based; conditions: Enterobacter cloacae, BAA2468; E. cloacae BAA-2468; read-out: MIC
# Procedure: as §1, §2
# K. pneumoniae BAA-2472 = experiment: MIC, micro-dilution broth method; type: cell-based; conditions: Klebsiella pneumoniae, BAA2472; K. pneumoniae BAA-2472; read-out: MIC
# Procedure: as §1, §2
# E. coli MG1655 = experiment: MIC, micro-dilution broth method; type: cell-based; conditions: Escherichia coli
# Procedure: as §1, §2
# K. pneumoniae M14723 = experiment: MIC, micro-dilution broth method; type: cell-based; conditions: Klebsiella pneumoniae; K. pneumoniae M14723; read-out: MIC
# Procedure: as §1, §2
# K. pneumoniae BAA-2342 = experiment: MIC, micro-dilution broth method; type: cell-based; conditions: Klebsiella pneumoniae, BAA2342; K. pneumoniae BAA-2342; read-out: MIC
# Procedure: as §1, §2
# A. baumannii KB304 = experiment: MIC, micro-dilution broth method; type: cell-based; conditions: Acinetobacter baumannii; A. baumannii KB304; read-out: MIC
# Procedure: as §1, §2
# A. baumannii M13100 = experiment: MIC, micro-dilution broth method; type: cell-based; conditions: Acinetobacter baumannii; A. baumannii M13100; read-out: MIC
# Procedure: as §1, §2
# A. baumannii KB343 = experiment: MIC, micro-dilution broth method; type: cell-based; conditions: Acinetobacter baumannii; A. baumannii KB343; read-out: MIC
# Procedure: as §1, §2
# K. pneumoniae S20595 = experiment: MIC, micro-dilution broth method; type: cell-based; conditions: Klebsiella pneumoniae; K. pneumoniae S20595; read-out: MIC
# Procedure: as §1, §2
# A. baumannii KB357 = experiment: MIC, micro-dilution broth method; type: cell-based; conditions: Acinetobacter baumannii; A. baumannii KB357; read-out: MIC
# Procedure: as §1, §2
# K. pneumoniae S47889 = experiment: MIC, micro-dilution broth method; type: cell-based; conditions: Klebsiella pneumoniae; K. pneumoniae S47889; read-out: MIC
# Procedure: as §1, §2
# E. cloacae BAA-2341 = experiment: MIC, micro-dilution broth method; type: cell-based; conditions: Enterobacter cloacae, BAA2341; E. cloacae BAA-2341; read-out: MIC
# Procedure: as §1, §2
# K. pneumoniae BAA-2470 = experiment: MIC, micro-dilution broth method; type: cell-based; conditions: Klebsiella pneumoniae, BAA2470; K. pneumoniae BAA-2470; read-out: MIC
# Procedure: as §1, §2
# E. coli ΔtolC JW5503 = experiment: MIC, micro-dilution broth method; type: cell-based; conditions: Escherichia coli
# Procedure: as §1, §2
# K. pneumoniae BAA-1705 = experiment: MIC, micro-dilution broth method; type: cell-based; conditions: Klebsiella pneumoniae, BAA1705; K. pneumoniae BAA-1705; read-out: MIC
# Procedure: as §1, §2
# E. coli BAA-2471 = experiment: MIC, micro-dilution broth method; type: cell-based; conditions: Escherichia coli, BAA2471; E. coli BAA-2471; read-out: MIC
# Procedure: as §1, §2
# E. coli AR-0349 = experiment: MIC, micro-dilution broth method; type: cell-based; conditions: Escherichia coli, AR0349; E. coli AR-0349; read-out: MIC
# Procedure: as §1, §2
# E. coli BAA-2469 [2] = experiment: MIC, micro-dilution broth method; type: cell-based; conditions: Escherichia coli, BAA2469; E. coli BAA-2469; read-out: MIC
# Procedure: as §1, §2
# A. baumannii WO22 = experiment: MIC, micro-dilution broth method; type: cell-based; conditions: Acinetobacter baumannii; A. baumannii WO22; read-out: MIC
# Procedure: as §1, §2
# S. aureus ATCC 29213 = experiment: MIC, micro-dilution broth method; type: cell-based; conditions: Staphylococcus aureus, ATCC29213, S. aureus ATCC 29213
# Procedure: as §1, §2
# A. baumannii W41979 = experiment: MIC, micro-dilution broth method; type: cell-based; conditions: Acinetobacter baumannii; A. baumannii W41979; read-out: MIC
# Procedure: as §1, §2
# E. coli AR-0346 = experiment: MIC, micro-dilution broth method; type: cell-based; conditions: Escherichia coli, AR0346; E. coli AR-0346; read-out: MIC
# Procedure: as §1, §2
# K. pneumoniae BAA-2473 = experiment: MIC, micro-dilution broth method; type: cell-based; conditions: Klebsiella pneumoniae, BAA2473; K. pneumoniae BAA-2473; read-out: MIC
# Procedure: as §1, §2
# A. baumannii F19521 = experiment: MIC, micro-dilution broth method; type: cell-based; conditions: Acinetobacter baumannii; A. baumannii F19521; read-out: MIC
# Procedure: as §1, §2
# [3] = test system: E. coli strains with intact outer membranes; experiment: MIC, micro-dilution broth method (text summary); type: cell-based; conditions: E. coli strains with intact outer membranes
# Procedure: FIG. 2. Antimicrobial activity of Debio-1452 and derivatives. MIC values were determined using the micro-dilution broth method as outlined by the Clinical and Laboratory Standards Institute (clsi.org/). All experiments were performed in biological triplicate.
# as §2
# H. sapiens IMR-90 = experiment: Cell viability, Alamar Blue; type: cell-based; conditions: Homo sapiens, IMR-90, read-out: % inhibition at 30 μM
# Procedure: Cell culture. IMR90 cells were obtained from ATCC. IMR90 cells were grown in EMEM with 10% fetal bovine serum (Gemini Benchmark, Cat #100-106), 100 U/mL penicillin, and 100 μg/mL streptomycin. All cells were cultured at 37° C. in a 5% CO2 environment. Media was prepared by the University of Illinois School of Chemical Sciences Cell Media Facility. Sex and age of cell lines: IMR90 ([…]).
# Cell viability. Cells seeded (IMR90: 5,000 cells/well) a 96-well plate (Greiner Bio-One, Cat #655180) and were allowed to attach overnight. Cells were treated with investigational compounds in DMSO (30 μM, 1% DMSO final, 100 μL/well). Raptinal (100 μM) was used as a dead control. After 24 h post-treatment, media was exchanged with compound-free media. After 72 h post-treatment, cell viability was assessed using the Alamar Blue method. Stock Alamar Blue solution [10 μL, 440 μM resazurin (Sigma-Aldrich, Cat #R7017) in sterile 1×PBS] was added to each well, and plate was incubated […]. Conversion of Alamar Blue was measured with plate reader (SpectraMax M3, Molecular Devices) by fluorescence (ex 555 nm, em 585 nm, cutoff 570 nm, autogain). Percent death was determined by normalizing to DMSO-treated cells and raptinal-treated cells.
# Mouse MTD = conditions: mice, IP injection, single dose, monitored 2 weeks
# Procedure: The protocol was approved by the IACUC at the University of Illinois at Urbana-Champaign (Protocol Number: 16144). In these studies, 10- to 12-week-old female C57BL/6 mice purchased from Charles River were used. The maximum tolerate dose (MTD) of a single compound was determined first. […] For multiple doses, the compound was given by daily IP for 5 consecutive days and mice were monitored for signs of toxicity for 1 month. MTD was the highest dosage with acceptable toxicity (e.g., <20% weight loss). Single dose MTDs were initially determined.
smiles,measurement,setting,value
NCc1cnc(-n2cnc(CN3CCCC(c4nc(O)cc(-c5cccs5)n4)C3)c2)nc1 (stereo not drawn) [R13a],Bioactivity,E. coli BAA-2469 [1],16
same,Bioactivity,K. pneumoniae BAA-2146,64
same,Bioactivity,A. baumannii BAA-2093,>128
"CCN(CC)CCNc1nc(/C=C/c2ccc(Cl)cc2)nc2cc3ccccc3cc12 [Z3, Zantrin Z3, reference compound]",Bioactivity,E. coli BAA-2469 [1],>64
same,Bioactivity,K. pneumoniae BAA-2146,>64
same,Bioactivity,A. baumannii BAA-2093,32
"NCCNc1nc(/C=C/c2ccc(Cl)cc2)nc2cc3ccccc3cc12 [Z7, (E)-N^1-(2-(4-chlorostyryl)benzo[g]quinazolin-4-yl)ethane-1,2-diamine]",Bioactivity,E. coli BAA-2469 [1],4
same,Bioactivity,K. pneumoniae BAA-2146,>32
same,Bioactivity,A. baumannii BAA-2093,2
"Cc1ccc2nc(/C=C/c3ccc(Cl)cc3)nc(NCCN)c2c1 [Z14, (E)-N^1-(2-(4-chlorostyryl)-6-methylquinazolin-4-yl)ethane-1,2-diamine]",Bioactivity,E. coli BAA-2469 [1],8
same,Bioactivity,K. pneumoniae BAA-2146,64
same,Bioactivity,A. baumannii BAA-2093,8
"Cc1c(CN(C)C(=O)/C=C/c2cnc3c(c2)CC(CN)C(=O)N3)oc2ccccc12.Cl (stereo not drawn) [compound 2, (E)-3-(6-(aminomethyl)-7-oxo-5,6,7,8-tetrahydro-1,8-naphthyridin-3-yl)-N-methyl-N-((3-methylbenzofuran-2-yl)methyl)acrylamide hydrochloride]",MIC,K. pneumoniae M67198,32 µg/mL
same,MIC,E. coli AR-0495,2 µg/mL
same,MIC,E. coli AR-0493,4 µg/mL
same,MIC,K. pneumoniae AR-0347,8 µg/mL
same,MIC,E. coli ΔrfaC JW3596,0.5 µg/mL
same,MIC,K. pneumoniae M67297,32 µg/mL
same,MIC,E. cloacae S28901.1,8 µg/mL
same,MIC,E. cloacae BAA-2468,8 µg/mL
same,MIC,K. pneumoniae BAA-2472,16 µg/mL
same,MIC,"E. coli MG1655; E. coli MG1655, read-out: MIC",8 µg/mL
same,MIC,K. pneumoniae M14723,16 µg/mL
same,MIC,K. pneumoniae BAA-2342,16 µg/mL
same,MIC,A. baumannii KB304,64 µg/mL
same,MIC,A. baumannii M13100,16 µg/mL
same,MIC,A. baumannii KB343,> 64 µg/mL
same,MIC,K. pneumoniae S20595,16 µg/mL
same,MIC,A. baumannii KB357,> 64 µg/mL
same,MIC,K. pneumoniae S47889,8 µg/mL
same,MIC,E. cloacae BAA-2341,16 µg/mL
same,MIC,K. pneumoniae BAA-2470,4 µg/mL
same,MIC,E. coli ΔtolC JW5503,0.125 µg/mL
same,MIC,K. pneumoniae BAA-1705,16 µg/mL
same,MIC,E. coli BAA-2471,4 µg/mL
same,MIC,E. coli AR-0349,2 µg/mL
same,MIC,E. coli BAA-2469 [2],2 µg/mL
same,MIC,A. baumannii WO22,> 64 µg/mL
same,MIC,S. aureus ATCC 29213; read-out: MIC,0.03 µg/mL
same,MIC,A. baumannii W41979,16 µg/mL
same,MIC,E. coli AR-0346,4 µg/mL
same,MIC,K. pneumoniae BAA-2473,16 µg/mL
same,MIC,A. baumannii F19521,16 µg/mL
same,antibacterial activity (in words),[3],active
"Cc1c(CN(C)C(=O)/C=C/c2cnc3c(c2)CC(CCN)C(=O)N3)oc2ccccc12 (stereo not drawn) [compound 3, (E)-3-(6-(aminoethyl)-7-oxo-5,6,7,8-tetrahydro-1,8-naphthyridin-3-yl)-N-methyl-N-((3-methylbenzofuran-2-yl)methyl)acrylamide hydrochloride]",MIC,E. coli ΔrfaC JW3596,0.5 µg/mL
same,MIC,E. coli MG1655; MG1655,8 µg/mL
same,MIC,E. coli ΔtolC JW5503,0.062 µg/mL
same,MIC,S. aureus ATCC 29213,0.125 µg/mL
same,inhibition at 30 µM,H. sapiens IMR-90,12%
same,antibacterial activity (in words),[3],active
same,single dose well tolerated,Mouse MTD,100 mg/kg
